Experimental data published in US20140378460A1, “COMPOSITIONS AND METHODS FOR TREATING NEURODEGENERATIVE DISEASE” (COGNITION THERAPEUTICS, INC., priority 2011, published 2014).
Read-outs that look alike come from different tables or passages of the source.

How the values were obtained:
[1] = tested on: Abeta oligomer-induced membrane trafficking deficits in primary hippocampal neurons; experiment: Membrane trafficking/exocytosis (MTT) assay; type: cell-based, rat; settings: for IC50: read-out: Membrane trafficking IC50
Method: The methods used to generate the results were as follows in the Membrane Trafficking/Exocytosis (MTT) assay.
Primary hippocampal neurons from E18 Sprague-Dawley rat embryos were plated at optimized concentrations in 384 well plates in NB media (Invitrogen). Neurons were maintained in cultures for 3 weeks, with twice weekly feeding of NB media with N2 supplement (Invitrogen).
A test compound was added to cells at concentrations ranging from 100 uM to 0.001 nM followed by addition of vehicle or Abeta oligomer preparations (3 μM total Abeta protein concentration), and incubated for 1 to 24 hr at 37° C. in 5% CO2. MTT reagent (3-(4,5-dimethylthizaol-2-yl)-2,5diphenyl tetrazolium bromide) (Roche Molecular Biochemicals) was reconstituted in phosphate buffered saline to 5 mg/mL. 10 μl, of MTT labeling reagent is added to each well and incubated at 37° C. for 1 h, then imaged. Exocytosis was assessed by automated microscopy and image processing to quantify the amount of endocytosed and exocytosed formazan.
Each assay plate was formatted so that compounds are tested with and without Abeta oligomer on each plate.

[2] = biological target: T1, sigma-2 receptor (Rattus norvegicus, UniProt Q5U3Y7); parameters: other: known prior art compounds, published studies; settings: cited from earlier work
T1 sequence (Q5U3Y7 1-176): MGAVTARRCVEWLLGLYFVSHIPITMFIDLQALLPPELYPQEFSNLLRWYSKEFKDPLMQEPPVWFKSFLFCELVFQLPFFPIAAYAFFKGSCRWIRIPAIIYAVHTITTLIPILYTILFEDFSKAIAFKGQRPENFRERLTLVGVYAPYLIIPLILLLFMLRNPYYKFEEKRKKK

[3] = tested on: Sigma-1 receptors; settings: known prior art compounds; cited from earlier work
[4] = biological target: T2, Sigma-1 receptors (UniProt Q60492); settings: cited from earlier work
T2 construct: other: known prior art compounds, published studies

[5] = tested on: Abeta oligomer-induced synapse loss in primary hippocampal neurons; experiment: Synapse loss assay; type: cell-based, rat
Method: In this assay, Abeta oligomers were brought in contact with mature primary neurons in culture and their binding was determined by immunohistochemistry (anti-Abeta antibody) and quantified by image processing. The amount of Abeta in neuronal dendrites is assessed by counting the number of labeled puncta on the neuritis. […] This labeling is associated with synapses, co-localizing with the post-synaptic scaffold protein PSD-95 (Lacor et al., '04). […] The number of synapses can also be quantified in this assay by immunofluorochemistry. Similar procedures for binding assays can be found in the literature. […] Review.
Primary hippocampal neuronal culture was established as in the membrane trafficking assay above. […] Pretreatment with compounds to be tested lasted for 1 hr and addition of Abeta oligomers or no oligomer (vehicle alone) in a final concentration of 70 ul was followed by incubation for an additional 23 hrs.
The plates were then washed 3× with PBS for 5 min each. The plates were blocked at RT for 1 hr in 5% goat serum and 0.5% Triton X-100 in PBS. […] Primary antibodies were incubated overnight at 4° C. The plates were then washed 3× with PBS for 5 min each. […] Secondary antibodies were incubated at RT for 1 hr. The plates were washed once with PBS. DAPI (4′,6-diamidino-2-phenylindole, Invitrogen) was then applied at 0.03 ug/ul and incubated at RT for 5 min, then washed with PBS.

[6] = tested on: caspase-3 in SKOV-3 human ovarian cancer cells; experiment: Caspase-3 activity in tumor cells; type: cell-based
[7] = tested on: neuronal cultures
[8] = tested on: SKOV-3 human ovarian cancer cell line; experiment: MTS tumor cell viability assay; type: cell-based; settings: for Action: by EC50 relative to siramesine
Method: The cytotoxicity of compounds shown below was determined using the CellTiter96 Aqueous One Solution Assay (Promega, Madison, Wis.). […] The plate was read at 490 nm in a Victor3 plate reader (PerkinElmer Life and Analytical Sciences, Shelton, Conn.). The EC^50 value, defined as the concentration of the sigma ligand required to inhibit cell viability by 50% relative to untreated cells, was determined from the dose response curve for each cell line.

[9] = tested on: caspase-3 in neuronal cultures; experiment: Caspase-3 activity in neurons; type: cell-based
[10] = Rattus norvegicus, Hippocampal neuron, Table 11C, known prior art compounds, read-out: Inhibition Abeta oligomer-induced Membrane Trafficking EC50
[11] = known prior art compounds, published studies, read-out: Sigma 2 Binding Ki
[12] = known prior art compounds, published studies, read-out: Sigma 1 Binding Ki
[13] = Table 11C, known prior art compounds, read-out: Inhibition Abeta oligomer-induced Membrane Trafficking EC50
[14] = Table 11C, read-out: S2 binding Ki
[15] = Table 11D, read-out: Sigma-2 Receptor Ki
[16] = Table 11C, read-out: S1 binding Ki
[17] = Table 11D, read-out: Sigma-1 Receptor Ki

For CNC(C)CCc1ccc(O)c(OC)c1 (centres unmarked) [Entry 5], the EC50 ([1]; scaffold drawing 245, R' varied, read-out: Membrane Trafficking EC50) was 30000 nM.

For CC(C(O)c1ccc(O)cc1)N1CCC(Cc2ccccc2)CC1 (centres unmarked) [Ifenprodil], the “Max Inhibition of Abeta (%)” value [1] was 38%, the EC50 [1, 10] was over 20000 nM and the “Functional Neuronal Phenotype” value ([1]; Table 11C) was “Inactive”.

Work on CC12CC3CC(C)(C1)CC(N)(C3)C2 [Memantine, memantine] yielded an inhibition at 28 µM ([1]; Rattus norvegicus, Hippocampal neuron, 28 μM, read-out: Inhibition of oligomer effects) of 50%.

For CCCN(CCC)CCc1ccc(OC)c(OCCc2ccccc2)c1 [NE100], the Ki [2, 11] is listed as 170 nM, the “Sigma 1 (Type of Activity)” value [3] is listed as “(antagonist)” and the Ki [4, 12] is listed as 1.1 nM.

With CCCN(CCC)CCc1ccc(OC)c(OCCc2ccccc2)c1 [NE 100] the “Max Inhibition of Abeta (%)” value [1] was 98%, the “Functional Neuronal Phenotype” value ([1]; Table 11C) was “Antagonist” and the EC50 [1, 13] was 1300 nM. The “Functional Neuronal Phenotype” value ([1]; Table 11D) was “Antagonist”, the IC50 ([1]; Table 11D) was 1300 nM and the Ki [2, 14] was 170 nM. For the same compound, the Ki [2, 15] was 170 nM, the Ki [4, 16] was 1.1 nM and the Ki [4, 17] was 1.1 nM.

With CCCN(CCC)CCc1ccc(OC)c(OCCc2ccccc2)c1 [NE-100] the “Effect on Abeta oligomer-induced synapse loss” value [5] was “completely eliminated synapse loss”.

In the case of COc1cccc2c1CCCC2CCCN1CCN(C2CCCCC2)CC1 (centres unmarked) [PB 28], the “Max Inhibition of Abeta (%)” value [1] is reported as 84%, the “Functional Neuronal Phenotype” value ([1]; Table 11C) is reported as “Antagonist” and the EC50 [1, 13] is reported as 1000 nM. For the same compound, the “Functional Neuronal Phenotype” value ([1]; Table 11D) was “Antagonist”, the IC50 ([1]; Table 11D) was 1000 nM and the Ki [2, 14] was 0.8 nM. For the same compound, the Ki [2, 15] was 0.8 nM and the Ki [2, 11] was 0.8 nM.

With c1ccc(CCCCN2CCC(c3ccccc3)CC2)cc1 [PPBP] the “Functional Neuronal Phenotype” value ([1]; Table 11C) was “Antagonist”, the EC50 [1, 13] was 10900 nM and the “Functional Neuronal Phenotype” value ([1]; Table 11D) was “Antagonist”. For the same compound, the IC50 ([1]; Table 11D) was 10900 nM, the “Sigma 1 (Type of Activity)” value [3] was “(agonist)” and the Ki [4, 16] was 0.8 nM. The Ki [4, 17] was 0.8 nM and the Ki [4, 12] was 0.8 nM.

With O=C(OCCN1CCOCC1)C1(c2ccccc2)CCCCC1 [PRE-84] the “Activity in membrane trafficking assay” value [1] was “inactive”, the “Max Inhibition of Abeta (%)” value [1] was 38% and the “Functional Neuronal Phenotype” value ([1]; Table 11C) was “Inactive”. For the same compound, the EC50 [1, 13] was over 30000 nM, the Ki [2, 11] was 13100 nM and the “Sigma 1 (Type of Activity)” value [3] was “(agonist)”.

With COc1cc2c(cc1OC)CN(CCCCNC(=O)c1cc(C)ccc1OC)CC2 [RHM-1, N-[4-(3,4-dihydro-6,7-dimethoxyisoquinolin-2(1H)-yl)butyl]-2-methoxy-5-methylbenzamide] the “Block of SV-119-induced caspase-3 activation in tumor cells” value [6] was “do not block caspase-3 activation”, the “Caspase-3 activity induced in tumor cells” value [6] was “did not induce caspase-3 activity” and the “Effect on Abeta oligomer trafficking deficits over the concentrations tested” value [1] was “blocks oligomer-induced trafficking deficits at all concentrations tested”. For the same compound, the “Nuclear morphology / nuclear intensity in neurons” value [7] was “did not decrease nuclear intensity”, the Action [8] was “Antagonist” and the “Caspase-3 activity induced in neurons” value [9] was “did not induce caspase-3 activity”.

For C=CCN1CCC2(C)c3cc(O)ccc3CC1C2C (centres unmarked) [SFK10047], the Ki [2, 11] is given as 39700 nM and the “Sigma 1 (Type of Activity)” value [3] is given as “(agonist)”.

In the case of C=CCN1CC[C@]2(C)c3cc(O)ccc3C[C@H]1[C@H]2C [SKF 10,047], the “Functional Neuronal Phenotype” value ([1]; Table 11C) is given as “Inactive”, the EC50 [1, 13] is given as over 30000 nM and the Ki [2, 14] is given as over 10000 nM.

In the case of CN[C@H]1CC[C@@H](c2ccc(Cl)c(Cl)c2)c2ccccc21 [Sertraline], the “Sigma 1 (Type of Activity)” value [3] is given as “(antagonist)”.

In the case of COc1ccc(C)cc1NC(=O)OC1CC2CCCC(C1)N2Cc1ccc(N(C)C)cc1 (centres unmarked) [WC-26], the EC50 [1, 10] is listed as 1600 nM, the “Functional Neuronal Phenotype” value ([1]; Table 11C) is listed as “Agonist” and the Ki ([2]; read-out: S2 binding Ki, Table 11C) is listed as 3 nM. For the same compound, the “Nuclear morphology / nuclear intensity in neurons” value [7] was “caused significant abnormal nuclear morphology”, the IC50 ([8]; Homo sapiens, SK-OV-3, tumor cell viability, 48 hrs) was 65600 ± 6300 nM and the Action [8] was “Partial agonist”. For the same compound, the Ki [4, 16] was 1400 nM.
